Results from US20190269666A1, “COMBINATION THERAPY WITH MERESTINIB AND ANTI-PD-L1 OR ANTI-PD-1 INHIBITORS FOR USE IN THE TREATMENT OF CANCER” (Eli Lilly and Company, priority 2016, published 2019).

System: CT26 colorectal cancer model
Experiment: Study S010516: merestinib and anti-PD-L1 antibody combinations in CT26 syngeneic mouse tumor model
Format: in vivo
Set-up: key to Mean Tumor Volume: mm³; tumor volume v = l×w²×0.536
Details: for Mean Tumor Volume: in mm³ (unit assumed)
Protocol: A syngeneic mouse tumor model is used to evaluate potential combination effect of merestinib and anti-PD-L1 antibody is the CT26 colorectal cancer model using the mouse colorectal cancer line CT26. This experiment is conducted in immune competent mice (Grosso and Jure-Kunkel, Cancer Immunity Vol. 13, p. 5, January 2013; Duraiswamy et al, Cancer Research, Jun. 15, 2013 73; 3591.). Anti-PD-L1 antibody surrogate (178G7, LSN3370181) (Eppihimer et al. Microcirculation 2002:9(2):133) is used in the mouse study.
Female BALB/c mice (18-20 gm) from Envigo (Harlan Laboratories) are used for this study. Food and water are available ad libitum. Animals are acclimated for one week prior to any experimental manipulation. The study is performed in accordance with AALAC accredited institutional guidelines.
Merestinib is formulated as a solution in 10% PEG 400 in 90% (20% Captisol in water) once weekly. Anti-PD-L1 antibody (178G7, LSN3370181) is formulated in PBS (phosphate buffered saline).
CT26 cells (from internal in vivo pharmacology cell culture group lot CT26.WT.3184878) are used for implantation. Approximately 1×10^6 cells in HBSS are implanted subcutaneously into the right hind flank of the animal under anesthesia.
Study S010516 has six groups: 1) vehicle control (10% PEG 400 in 90% [20% Captisol in water]) dosed orally once daily for 21 days and dosing initiated at Day 6 post-implant of CT26 cells; 2) single agent anti-PD-L1 antibody (178G7, LSN3370181) dosing via IP at 500 μg/animal once weekly for 3 weeks initiated at Day 6 post-implant of CT26 cells; 3) single agent merestinib at 12 mg/kg once daily orally for 21 days and initiated at Day 6 post-implant of CT26 cells; 4) concurrent combination of merestinib (12 mg/kg once daily for 21 days orally) and anti-PD-L1 antibody (500 μg/animal once weekly via IP for 3 weeks) and initiated at Day 6 post-implant of CT26 cells; 5) sequential combination of merestinib (12 mg/kg once daily for 21 days orally and initiated at Day 6 post-implant of CT26 cells) and anti-PD-L1 antibody (500 μg/animal once weekly via IP for 3 weeks and initiated at Day 13 post-implant of CT26 cells); 6) delayed concurrent combination of merestinib (12 mg/kg once daily for 21 days orally) and anti-PD-L1 antibody (500 μg/animal once weekly via IP for 3 weeks) and initiated at Day 10 post-implant of CT26 cells.
There are 15 animals per group. Five animals per group are taken down on Day 20 post-implant of CT26 cells for the harvesting of spleens and tumors for the interrogation of the effect of the combination of merestinib and anti-PD-L1 antibody combination on immune functions. Ten animals per group remain for the duration of the study unless, as pre-defined in the study protocol, the animal is to be sacrificed if the tumor volume exceeds 2500 mm^3 or is ulcerated. Tumor volumes and body weight are measured bi-weekly. Tumor volume is estimated by using the formula: v=l×w2×0.536 where l=larger of measured diameter and w=smaller of perpendicular diameter.
The last dose of drug is received on Day 20, Day 27, Day 27, Day 27 and Day 31, respectively, for group 2, group 3, group 4, group 5 and group 6. On Day 64, about 1 month to 1.5 months after completing drug-dosing, animals that are still alive and with tumor response classified as PR (partial responder) or CR (complete responder) are re-challenged with a new implantation of CT26 tumor cells (1×10^6 cells in HBSS) subcutaneously into the contralateral side of the hind flank (left side) of the animal under anesthesia. The definition of PR and CR is in the statistical method section below. Three naïve animals (study protocol S035116) are used as control and are implanted with the same batch of CT26 tumor cells (1×10^6 cells in HBSS) subcutaneously into the left hind flank of the animal under anesthesia. Tumor growth is monitored and measured in the animals. […]

[1] = animals of 10/group, tumor volume ≤25 mm^3

SMILES: Cc1ccc(C(=O)Nc2ccc(Oc3cc4cnn(C)c4cc3-c3cn[nH]c3)c(F)c2)c(=O)n1-c1ccc(F)cc1 [merestinib, N-(3-fluoro-4-(1-methyl-6-(1H-pyrazol-4-yl)-1H-indazol-5-yloxy)phenyl)-1-(4-fluorophenyl)-6-methyl-2-oxo-1,2-dihydropyridine-3-carboxamide]
- tumor growth after cessation of dosing (12 mg/kg, after the 21 day dosing period, Days 33-40): grew exponentially
- % Response (% ΔT/C above baseline, % Regression below baseline) (Day 8): −65.5%
- Mean Tumor Volume (Day 8): 64.7
- % Response (% ΔT/C above baseline, % Regression below baseline) (Day 12): −29.4%
- Mean Tumor Volume (Day 12): 132.5
- % Response (% ΔT/C above baseline, % Regression below baseline) (Day 15): 14.6%
- Mean Tumor Volume (Day 15): 206.6
- % Response (% ΔT/C above baseline, % Regression below baseline) (Day 19): 53.7%
- Mean Tumor Volume (Day 19): 357.7
- % Response (% ΔT/C above baseline, % Regression below baseline) (Day 22): 35.6%
- Mean Tumor Volume (Day 22): 491.5
- % Response (% ΔT/C above baseline, % Regression below baseline) (Day 25): 31.3%
- Mean Tumor Volume (Day 25): 717.0
- % Response (% ΔT/C above baseline, % Regression below baseline) (Day 28): 24.8%
- Mean Tumor Volume (Day 28): 845.3
- % Response (% ΔT/C above baseline, % Regression below baseline) (Day 33): 27.1%
- Mean Tumor Volume mm^3 (Day 33): 1609.0 mm^3
- T/C % (Day 33): 31.2%
- anti-tumor effect as compared to vehicle control (Day 33 / end of dosing): significant anti-tumor effect
- Difference (Treatment 1 − Treatment 2), log scale tumor volume (Day 33, Treatment 1 = Vehicle control): 0.529
- Mean Tumor Volume (Day 33): 1608.2
- Day 33 Treatment Responders GD (Growth Delay) (animals of 10/group): 1
- Day 33 Treatment Responders PD (Progressive Disease) (animals of 10/group): 9
- Day 33 Treatment Responders PR (Partial Response) (animals of 10/group): 0
- Day 64 Treatment Responders GD (Growth Delay) (animals of 10/group): 1
- Day 64 Treatment Responders PD (Progressive Disease) (animals of 10/group): 9
- Day 64 Treatment Responders PR (Partial Response) (animals of 10/group): 0
- Day 33 Treatment Responders CR (Complete and durable Regression) [1]: 0
- Day 64 Treatment Responders CR (Complete and durable Regression) [1]: 0
